pEC50: −log10 of the molar value.
biological target: AMPK; assay: AMPK activation, enzyme-linked immunosorbent assay; assay type: biochemical; conditions: Table 8, compounds of Table 1
Procedure, shortened: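 Read-out: ELISA, used to detect compound-driven activation of AMPK.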

Structure (SMILES) | pEC50
CC(C)(C)OC(=O)N1CC[C@@H](NC(=O)c2cc3cc(OC4CCN(c5ccc(C(F)(F)F)cc5)CC4)ccc3o2)C1 [Compound 1-120, (R)-tert-butyl 3-(5-(1-(4-(trifluoromethyl)phenyl)piperidin-4-yloxy)benzofuran-2-carboxamido) pyrrolidine-1-carboxylate] | 5.30 to 6.00
O=C(N[C@@H]1CCN(Cc2ccncc2)C1)c1cc2cc(OC3CCN(c4ccc(C(F)(F)F)cc4)CC3)ccc2o1 [Compound 1-122, (R)-N-(1-(pyridin-4-ylmethyl)pyrrolidin-3-yl)-5-(1-(4-(trifluoromethyl)phenyl)piperidin-4-yloxy)benzofuran-2-carboxamide] | 6.30 to 7.00
O=C(N[C@@H]1CCN(Cc2cccnc2)C1)c1cc2cc(OC3CCN(c4ccc(C(F)(F)F)cc4)CC3)ccc2o1 [Compound 1-123, (R)-N-(1-(pyridin-3-ylmethyl)pyrrolidin-3-yl)-5-(1-(4-(trifluoromethyl)phenyl)piperidin-4-yloxy)benzofuran-2-carboxamide] | 6.30 to 7.00
O=C(N[C@@H]1CCN(Cc2ccccn2)C1)c1cc2cc(OC3CCN(c4ccc(C(F)(F)F)cc4)CC3)ccc2o1 [Compound 1-124, (R)-N-(1-(pyridin-2-ylmethyl)pyrrolidin-3-yl)-5-(1-(4-(trifluoromethyl)phenyl)piperidin-4-yloxy)benzofuran-2-carboxamide] | 5.30 to 6.00
O=C(N[C@@H]1CCN(C(=O)c2ccncc2)C1)c1cc2cc(OC3CCN(c4ccc(C(F)(F)F)cc4)CC3)ccc2o1 [Compound 1-125, (R)-N-(1-isonicotinoylpyrrolidin-3-yl)-5-(1-(4-(trifluoromethyl)phenyl)piperidin-4-yloxy)benzofuran-2-carboxamide] | 5.30 to 6.00
CC(C)(C)OC(=O)N1CC[C@H](NC(=O)c2cc3cc(OC4CCN(Cc5ccc(Cl)cc5)CC4)ccc3o2)C1 [Compound 1-127, (S)-tert-butyl 3-(5-(1-(4-chlorobenzyl)piperidin-4-yloxy)benzofuran-2-carboxamido) pyrrolidine-1-carboxylate] | 5.30 to 6.00
O=C(N[C@H]1CCN(Cc2cccnc2)C1)c1cc2cc(OC3CCN(Cc4ccc(Cl)cc4)CC3)ccc2o1 [Compound 1-130, (S)-5-(1-(4-chlorobenzyl)piperidin-4-yloxy)-N-(1-(pyridin-3-ylmethyl)pyrrolidin-3-yl)benzofuran-2-carboxamide] | 5.30 to 6.00
O=C(NC1CCN(Cc2ccncc2)CC1)c1cc2cc(OC3CCN(c4ccc(OC(F)(F)F)cc4)CC3)ccc2s1 [Compound 1-137, N-(1-(pyridin-4-ylmethyl)piperidin-4-yl)-5-(1-(4-(trifluoromethoxy)phenyl)piperidin-4-yloxy)benzo [b]thiophene-2-carboxamide] | > 7.00
CC(C)(C)OC(=O)N1CCC(NC(=O)c2sc3cc(OC4CCN(c5ccc(C(F)(F)F)cc5)CC4)ccc3c2Cl)CC1 [Compound 1-147, tert-butyl 4-(3-chloro-6-(1-(4-(trifluoromethyl)phenyl)piperidin-4-yloxy)benzo [b]thiophene-2-carboxamido) piperidine-1-carboxylate] | 5.30 to 6.00
CC(C)(C)OC(=O)N1CCC(NC(=O)c2cc3cc(OC4CCN(c5ccc(C(F)(F)F)cc5)CC4)ccc3s2)CC1 [Compound 1-149, tert-butyl 4-(5-(1-(4-(trifluoromethyl)phenyl)piperidin-4-yloxy)benzo [b]thiophene-2-carboxamido) piperidine-1-carboxylate] | > 7.00
O=C(NC1CCNCC1)c1cc2cc(OC3CCN(c4ccc(C(F)(F)F)cc4)CC3)ccc2s1 [Compound 1-150, N-(piperidin-4-yl)-5-(1-(4-(trifluoromethyl)phenyl)piperidin-4-yloxy)benzo [b]thiophene-2-carboxamide] | 5.30 to 6.00
O=C(NC1CCN(Cc2ccncc2)CC1)c1sc2cc(OC3CCN(c4ccc(C(F)(F)F)cc4)CC3)ccc2c1Cl [Compound 1-151, 3-chloro-N-(1-(pyridin-4-ylmethyl)piperidin-4-yl)-6-(1-(4-(trifluoromethyl)phenyl)piperidin-4-yloxy)benzo[b] thiophene-2-carboxamide] | > 7.00
O=C(NC1CCN(C(=O)c2ccncc2)CC1)c1sc2cc(OC3CCN(c4ccc(C(F)(F)F)cc4)CC3)ccc2c1Cl [Compound 1-155, 3-chloro-N-(1-isonicotinoylpiperidin-4-yl)-6-(1-(4-(trifluoromethyl)phenyl)piperidin-4-yloxy)benzo[b] thiophene-2-carboxamide] | > 7.00
FC(F)(F)c1ccc(N2CCC(Oc3ccc4c(c3)CCC4NC3CCNCC3)CC2)cc1 (stereo not drawn) [Compound 1-157, N-(5-(1-(4-(trifluoromethyl)phenyl)piperidin-4-yloxy)-2,3-dihydro-1H-inden-1-yl)piperidin-4-amine] | 5.30 to 6.00

Results, then the compound that gave them:

pEC50 | Structure (SMILES)
< 5.00 | O=C(N[C@@H]1CCNC1)c1cc2cc(OC3CCN(c4ccc(C(F)(F)F)cc4)CC3)ccc2o1 [Compound 1-121, (R)-N-(pyrrolidin-3-yl)-5-(1-(4-(trifluoromethyl)phenyl)piperidin-4-yloxy)benzofuran-2-carboxamide]
5.30 to 6.00 | O=C(N[C@@H]1CCN(S(=O)(=O)c2cccnc2)C1)c1cc2cc(OC3CCN(c4ccc(C(F)(F)F)cc4)CC3)ccc2o1 [Compound 1-126, (R)-N-(1-(pyridin-3-ylsulfonyl)pyrrolidin-3-yl)-5-(1-(4-(trifluoromethyl)phenyl)piperidin-4-yloxy)benzofuran-2-carboxamide]
< 5.00 | O=C(N[C@H]1CCNC1)c1cc2cc(OC3CCN(Cc4ccc(Cl)cc4)CC3)ccc2o1 [Compound 1-128, (S)-5-(1-(4-chlorobenzyl)piperidin-4-yloxy)-N-(pyrrolidin-3-yl)benzofuran-2-carboxamide]
5.30 to 6.00 | O=C(N[C@H]1CCN(Cc2ccncc2)C1)c1cc2cc(OC3CCN(Cc4ccc(Cl)cc4)CC3)ccc2o1 [Compound 1-129, (S)-5-(1-(4-chlorobenzyl)piperidin-4-yloxy)-N-(1-(pyridin-4-ylmethyl)pyrrolidin-3-yl)benzofuran-2-carboxamide]
5.30 to 6.00 | NC(=O)c1ccc(CN2CCC(Oc3ccc4oc(C(=O)NC5CCN(Cc6ccncc6)CC5)cc4c3)CC2)cc1 [Compound 1-131, 5-(1-(4-carbamoylbenzyl)piperidin-4-yloxy)-N-(1-(pyridin-4-ylmethyl)piperidin-4-yl)benzofuran-2-carboxamide]
> 7.00 | O=C(NC1CCN(Cc2ccncc2)CC1)c1cc2cc(OC3CCN(c4ccc(C(F)(F)F)cc4)CC3)ccc2s1 [Compound 1-138, N-(1-(pyridin-4-ylmethyl)piperidin-4-yl)-5-(1-(4-(trifluoromethyl)phenyl)piperidin-4-yloxy)benzo [b]thiophene-2-carboxamide]
6.00 to 6.30 | CC(C)(C)OC(=O)N1CCC(NC(=O)c2cc3ccc(OC4CCN(c5ccc(C(F)(F)F)cc5)CC4)cc3s2)CC1 [Compound 1-140, tert-butyl 4-(6-(1-(4-(trifluoromethyl)phenyl)piperidin-4-yloxy)benzo[b]thiophene-2-carboxamido) piperidine-1-carboxylate]
6.30 to 7.00 | O=C(NC1CCNCC1)c1cc2ccc(OC3CCN(c4ccc(C(F)(F)F)cc4)CC3)cc2s1 [Compound 1-141, N-(piperidin-4-yl)-6-(1-(4-(trifluoromethyl)phenyl)piperidin-4-yloxy)benzo[b] thiophene-2-carboxamide]
> 7.00 | N#Cc1ccc(CN2CCC(NC(=O)c3cc4ccc(OC5CCN(c6ccc(C(F)(F)F)cc6)CC5)cc4s3)CC2)cc1 [Compound 1-144, N-(1-(4-cyanobenzyl)piperidin-4-yl)-6-(1-(4-(trifluoromethyl)phenyl)piperidin-4-yloxy)benzo [b]thiophene-2-carboxamide]
6.30 to 7.00 | N#Cc1cccc(CN2CCC(NC(=O)c3cc4ccc(OC5CCN(c6ccc(C(F)(F)F)cc6)CC5)cc4s3)CC2)c1 [Compound 1-145, N-(1-(3-cyanobenzyl)piperidin-4-yl)-6-(1-(4-(trifluoromethyl)phenyl)piperidin-4-yloxy)benzo [b]thiophene-2-carboxamide]
6.30 to 7.00 | N#Cc1ccccc1CN1CCC(NC(=O)c2cc3ccc(OC4CCN(c5ccc(C(F)(F)F)cc5)CC4)cc3s2)CC1 [Compound 1-146, N-(1-(2-cyanobenzyl)piperidin-4-yl)-6-(1-(4-(trifluoromethyl)phenyl)piperidin-4-yloxy)benzo [b]thiophene-2-carboxamide]
< 5.00 | O=C(NC1CCNCC1)c1sc2cc(OC3CCN(c4ccc(C(F)(F)F)cc4)CC3)ccc2c1Cl [Compound 1-148, 3-chloro-N-(piperidin-4-yl)-6-(1-(4-(trifluoromethyl)phenyl)piperidin-4-yloxy)benzo [b]thiophene-2-carboxamide]
> 7.00 | O=C(NC1CCN(Cc2cccnc2)CC1)c1sc2cc(OC3CCN(c4ccc(C(F)(F)F)cc4)CC3)ccc2c1Cl [Compound 1-152, 3-chloro-N-(1-(pyridin-3-ylmethyl)piperidin-4-yl)-6-(1-(4-(trifluoromethyl)phenyl)piperidin-4-yloxy)benzo[b] thiophene-2-carboxamide]
6.30 to 7.00 | O=C(NC1CCN(Cc2ccccn2)CC1)c1sc2cc(OC3CCN(c4ccc(C(F)(F)F)cc4)CC3)ccc2c1Cl [Compound 1-153, 3-chloro-N-(1-(pyridin-2-ylmethyl)piperidin-4-yl)-6-(1-(4-(trifluoromethyl)phenyl)piperidin-4-yloxy)benzo[b] thiophene-2-carboxamide]
> 7.00 | N#Cc1ccc(CN2CCC(NC(=O)c3sc4cc(OC5CCN(c6ccc(C(F)(F)F)cc6)CC5)ccc4c3Cl)CC2)cc1 [Compound 1-154, 3-chloro-N-(1-(4-cyanobenzyl)piperidin-4-yl)-6-(1-(4-(trifluoromethyl)phenyl)piperidin-4-yloxy)benzo[b] thiophene-2-carboxamide]
6.30 to 7.00 | CC(C)(C)OC(=O)N1CCC(NC2CCc3cc(OC4CCN(c5ccc(C(F)(F)F)cc5)CC4)ccc32)CC1 (stereo not drawn) [Compound 1-156, tert-butyl 4-(5-(1-(4-(trifluoromethyl)phenyl)piperidin-4-yloxy)-2,3-dihydro-1H-inden-1-ylamino)piperidine-1-carboxylate]

From patent US9409884B2 (Rigel Pharmaceuticals, Inc., priority 2012, dated 2016)
